Test results published in PMC5492033, “The N-Terminal Region of the Ryanodine Receptor Affects Channel Activation” (Frontiers in Physiology, 2017).
Like-named read-outs stand apart in the source and are kept apart here. No end group written: not given here.

Key:
RyR2 channel = molecular target: T1, RyR2 channel (Rattus norvegicus, UniProt B0LPN4); assay: Single RyR2 channel measurements in planar lipid bilayers; format: biochemical; conditions: for POmax, maximum open probability: PO0 0.0039; for EC50: 50% of maximum increase of open probability; for Kd: PO at 0.5–2 μM peptide, cytosolic Ca2+ 100 nM, read-out: Kp, dissociation constant of DPcpvtN2
T1 construct: RyR2 channels were incorporated from a suspension of microsomal vesicles of the SR; from tissue; host or cells: rat (Wistar Han) heart ventricles, cardiac SR microsomes
Experimental: All experimental protocols were approved by the State veterinary and food administration of the Slovak Republic (Ro-3820/05-221, Ro-2821/09-221) and by the ethical committee of the Centre of Biosciences. All methods were carried out in accordance with the European directive 2010/63/EU. Male rats (Wistar Han, 240–310 g, breeding station Dobra Voda, reg. No. SK CH 24011, Slovak Republic) were anesthetized with sodium pentobarbital (50 mg kg^−1 i.p.), the hearts were excised, and cardiac SR microsomes were isolated from rat heart ventricles by differential centrifugation without further purification steps, as previously described (Gaburjakova and Gaburjakova, [2006]; Faltinova and Zahradnikova, [2013]), snap frozen in liquid nitrogen and stored at −70°C.
Preparation of bilayers, incorporation of channels and electrophysiological measurements were performed as previously described (Faltinova and Zahradnikova, [2013]). In brief, bilayer lipid membranes were formed over a 20–50 μm aperture in a polystyrene chamber. The aperture was first treated with a solution (26 mg/ml) of DOPS, DOPC and DPPC (3:5:5) in N-decane (Aldrich, USA). After evaporation of N-decane, the cis and trans compartments of the bilayer chamber were filled with the solutions (in mmol/l): cis, 250 HEPES, 50 KCl, 1 EGTA, 125 TRIS, 0.5 CaCl2, pH 7.35, [Ca^2+] = 90 nM; trans, 30 HEPES, 50 KCl, 1 Ca(OH)2, 7 Ba(OH)2, pH 7.35, and the bilayer was formed using a mixture of DOPS and DOPE (3:10; 26 mg/ml in N-decane). After formation of a bilayer, RyR2 channels were incorporated from a suspension of microsomal vesicles of the SR, added to the cis compartment. RyR identity was checked at the beginning of the experiment at high Ca^2+, when it was characteristic by its single-channel amplitude and open duration (Tencerova et al., [2012]; Faltinova and Zahradnikova, [2013]). Under the above ionic conditions, no other channels have similar properties. Detection of RyR channel was followed by perfusion to a basal Ca^2+ level. The identity of RyR was occasionally further tested at the end of the experiment by addition of 100 μM Ca^2+.
Currents through the incorporated single RyR2 channels were measured in voltage-clamp mode at 0 mV with MultiClamp 700B amplifier (Molecular Devices, USA) with a 50 GΩ feed-back resistor. The signal was filtered by a 4-pole Bessel filter at 1 kHz and digitized using an A/D converter (Digidata 1440A, Molecular Devices, USA) at a frequency of 4 kHz. Acquisition and analysis were performed using pClamp software (Ver. 10, Molecular Devices, USA) and Origin Pro (Ver. 9, OriginLab Corporation, USA).
Equilibrium open probabilities for different gating models (Equations 1–3) were determined from the gating schemes. Equations were derived using Mathematica (Ver. 10, Wolfram Research, USA) as previously described (Zahradnik et al., [2005]). The value of EC50 was calculated in Mathematica from Equations (1) to (3) as the ligand concentration, at which the increase of open probability reached 50% of maximum increase.

[1] = CD spectroscopy (secondary structure); format: physicochemical
Experimental: Circular dichroism (CD) measurements were performed using a Jasco J-810 spectropolarimeter (Japan). CD measurements were performed in the 198–250 nm wavelength range, which enabled estimation of the secondary structure of the peptide. The DPcpvtN2 peptide was dissolved either in 2 mM Na-phosphate (pH 7.0) or in 99.8% ethanol to a final concentration of 1.5–7 μM. CD spectra were expressed as averages of 3–5 consecutive scans. 1 mm cuvette was used for measurements. Typically, a time constant of 2 s, bandwidth of 2.0 nm, scanning speed 200 nm/min and the standard sensitivity were used. The spectra were analyzed using the web server CAPITO (Wiedemann et al., [2013]), which provides the percentage of α-helical, β-sheet and random coil in the secondary structure.

RyR2 = tested on: RyR2; set-up: method as in 2 sources, one per row (each row's own in cited_ref): ref Zahradnikova and Zahradnik, 1993 ||| ref Faltinova and Zahradnikova, 2013; conditions: ref Zahradnikova and Zahradnik, 1993; cited from earlier work

T1 sequence (B0LPN4 whole entry): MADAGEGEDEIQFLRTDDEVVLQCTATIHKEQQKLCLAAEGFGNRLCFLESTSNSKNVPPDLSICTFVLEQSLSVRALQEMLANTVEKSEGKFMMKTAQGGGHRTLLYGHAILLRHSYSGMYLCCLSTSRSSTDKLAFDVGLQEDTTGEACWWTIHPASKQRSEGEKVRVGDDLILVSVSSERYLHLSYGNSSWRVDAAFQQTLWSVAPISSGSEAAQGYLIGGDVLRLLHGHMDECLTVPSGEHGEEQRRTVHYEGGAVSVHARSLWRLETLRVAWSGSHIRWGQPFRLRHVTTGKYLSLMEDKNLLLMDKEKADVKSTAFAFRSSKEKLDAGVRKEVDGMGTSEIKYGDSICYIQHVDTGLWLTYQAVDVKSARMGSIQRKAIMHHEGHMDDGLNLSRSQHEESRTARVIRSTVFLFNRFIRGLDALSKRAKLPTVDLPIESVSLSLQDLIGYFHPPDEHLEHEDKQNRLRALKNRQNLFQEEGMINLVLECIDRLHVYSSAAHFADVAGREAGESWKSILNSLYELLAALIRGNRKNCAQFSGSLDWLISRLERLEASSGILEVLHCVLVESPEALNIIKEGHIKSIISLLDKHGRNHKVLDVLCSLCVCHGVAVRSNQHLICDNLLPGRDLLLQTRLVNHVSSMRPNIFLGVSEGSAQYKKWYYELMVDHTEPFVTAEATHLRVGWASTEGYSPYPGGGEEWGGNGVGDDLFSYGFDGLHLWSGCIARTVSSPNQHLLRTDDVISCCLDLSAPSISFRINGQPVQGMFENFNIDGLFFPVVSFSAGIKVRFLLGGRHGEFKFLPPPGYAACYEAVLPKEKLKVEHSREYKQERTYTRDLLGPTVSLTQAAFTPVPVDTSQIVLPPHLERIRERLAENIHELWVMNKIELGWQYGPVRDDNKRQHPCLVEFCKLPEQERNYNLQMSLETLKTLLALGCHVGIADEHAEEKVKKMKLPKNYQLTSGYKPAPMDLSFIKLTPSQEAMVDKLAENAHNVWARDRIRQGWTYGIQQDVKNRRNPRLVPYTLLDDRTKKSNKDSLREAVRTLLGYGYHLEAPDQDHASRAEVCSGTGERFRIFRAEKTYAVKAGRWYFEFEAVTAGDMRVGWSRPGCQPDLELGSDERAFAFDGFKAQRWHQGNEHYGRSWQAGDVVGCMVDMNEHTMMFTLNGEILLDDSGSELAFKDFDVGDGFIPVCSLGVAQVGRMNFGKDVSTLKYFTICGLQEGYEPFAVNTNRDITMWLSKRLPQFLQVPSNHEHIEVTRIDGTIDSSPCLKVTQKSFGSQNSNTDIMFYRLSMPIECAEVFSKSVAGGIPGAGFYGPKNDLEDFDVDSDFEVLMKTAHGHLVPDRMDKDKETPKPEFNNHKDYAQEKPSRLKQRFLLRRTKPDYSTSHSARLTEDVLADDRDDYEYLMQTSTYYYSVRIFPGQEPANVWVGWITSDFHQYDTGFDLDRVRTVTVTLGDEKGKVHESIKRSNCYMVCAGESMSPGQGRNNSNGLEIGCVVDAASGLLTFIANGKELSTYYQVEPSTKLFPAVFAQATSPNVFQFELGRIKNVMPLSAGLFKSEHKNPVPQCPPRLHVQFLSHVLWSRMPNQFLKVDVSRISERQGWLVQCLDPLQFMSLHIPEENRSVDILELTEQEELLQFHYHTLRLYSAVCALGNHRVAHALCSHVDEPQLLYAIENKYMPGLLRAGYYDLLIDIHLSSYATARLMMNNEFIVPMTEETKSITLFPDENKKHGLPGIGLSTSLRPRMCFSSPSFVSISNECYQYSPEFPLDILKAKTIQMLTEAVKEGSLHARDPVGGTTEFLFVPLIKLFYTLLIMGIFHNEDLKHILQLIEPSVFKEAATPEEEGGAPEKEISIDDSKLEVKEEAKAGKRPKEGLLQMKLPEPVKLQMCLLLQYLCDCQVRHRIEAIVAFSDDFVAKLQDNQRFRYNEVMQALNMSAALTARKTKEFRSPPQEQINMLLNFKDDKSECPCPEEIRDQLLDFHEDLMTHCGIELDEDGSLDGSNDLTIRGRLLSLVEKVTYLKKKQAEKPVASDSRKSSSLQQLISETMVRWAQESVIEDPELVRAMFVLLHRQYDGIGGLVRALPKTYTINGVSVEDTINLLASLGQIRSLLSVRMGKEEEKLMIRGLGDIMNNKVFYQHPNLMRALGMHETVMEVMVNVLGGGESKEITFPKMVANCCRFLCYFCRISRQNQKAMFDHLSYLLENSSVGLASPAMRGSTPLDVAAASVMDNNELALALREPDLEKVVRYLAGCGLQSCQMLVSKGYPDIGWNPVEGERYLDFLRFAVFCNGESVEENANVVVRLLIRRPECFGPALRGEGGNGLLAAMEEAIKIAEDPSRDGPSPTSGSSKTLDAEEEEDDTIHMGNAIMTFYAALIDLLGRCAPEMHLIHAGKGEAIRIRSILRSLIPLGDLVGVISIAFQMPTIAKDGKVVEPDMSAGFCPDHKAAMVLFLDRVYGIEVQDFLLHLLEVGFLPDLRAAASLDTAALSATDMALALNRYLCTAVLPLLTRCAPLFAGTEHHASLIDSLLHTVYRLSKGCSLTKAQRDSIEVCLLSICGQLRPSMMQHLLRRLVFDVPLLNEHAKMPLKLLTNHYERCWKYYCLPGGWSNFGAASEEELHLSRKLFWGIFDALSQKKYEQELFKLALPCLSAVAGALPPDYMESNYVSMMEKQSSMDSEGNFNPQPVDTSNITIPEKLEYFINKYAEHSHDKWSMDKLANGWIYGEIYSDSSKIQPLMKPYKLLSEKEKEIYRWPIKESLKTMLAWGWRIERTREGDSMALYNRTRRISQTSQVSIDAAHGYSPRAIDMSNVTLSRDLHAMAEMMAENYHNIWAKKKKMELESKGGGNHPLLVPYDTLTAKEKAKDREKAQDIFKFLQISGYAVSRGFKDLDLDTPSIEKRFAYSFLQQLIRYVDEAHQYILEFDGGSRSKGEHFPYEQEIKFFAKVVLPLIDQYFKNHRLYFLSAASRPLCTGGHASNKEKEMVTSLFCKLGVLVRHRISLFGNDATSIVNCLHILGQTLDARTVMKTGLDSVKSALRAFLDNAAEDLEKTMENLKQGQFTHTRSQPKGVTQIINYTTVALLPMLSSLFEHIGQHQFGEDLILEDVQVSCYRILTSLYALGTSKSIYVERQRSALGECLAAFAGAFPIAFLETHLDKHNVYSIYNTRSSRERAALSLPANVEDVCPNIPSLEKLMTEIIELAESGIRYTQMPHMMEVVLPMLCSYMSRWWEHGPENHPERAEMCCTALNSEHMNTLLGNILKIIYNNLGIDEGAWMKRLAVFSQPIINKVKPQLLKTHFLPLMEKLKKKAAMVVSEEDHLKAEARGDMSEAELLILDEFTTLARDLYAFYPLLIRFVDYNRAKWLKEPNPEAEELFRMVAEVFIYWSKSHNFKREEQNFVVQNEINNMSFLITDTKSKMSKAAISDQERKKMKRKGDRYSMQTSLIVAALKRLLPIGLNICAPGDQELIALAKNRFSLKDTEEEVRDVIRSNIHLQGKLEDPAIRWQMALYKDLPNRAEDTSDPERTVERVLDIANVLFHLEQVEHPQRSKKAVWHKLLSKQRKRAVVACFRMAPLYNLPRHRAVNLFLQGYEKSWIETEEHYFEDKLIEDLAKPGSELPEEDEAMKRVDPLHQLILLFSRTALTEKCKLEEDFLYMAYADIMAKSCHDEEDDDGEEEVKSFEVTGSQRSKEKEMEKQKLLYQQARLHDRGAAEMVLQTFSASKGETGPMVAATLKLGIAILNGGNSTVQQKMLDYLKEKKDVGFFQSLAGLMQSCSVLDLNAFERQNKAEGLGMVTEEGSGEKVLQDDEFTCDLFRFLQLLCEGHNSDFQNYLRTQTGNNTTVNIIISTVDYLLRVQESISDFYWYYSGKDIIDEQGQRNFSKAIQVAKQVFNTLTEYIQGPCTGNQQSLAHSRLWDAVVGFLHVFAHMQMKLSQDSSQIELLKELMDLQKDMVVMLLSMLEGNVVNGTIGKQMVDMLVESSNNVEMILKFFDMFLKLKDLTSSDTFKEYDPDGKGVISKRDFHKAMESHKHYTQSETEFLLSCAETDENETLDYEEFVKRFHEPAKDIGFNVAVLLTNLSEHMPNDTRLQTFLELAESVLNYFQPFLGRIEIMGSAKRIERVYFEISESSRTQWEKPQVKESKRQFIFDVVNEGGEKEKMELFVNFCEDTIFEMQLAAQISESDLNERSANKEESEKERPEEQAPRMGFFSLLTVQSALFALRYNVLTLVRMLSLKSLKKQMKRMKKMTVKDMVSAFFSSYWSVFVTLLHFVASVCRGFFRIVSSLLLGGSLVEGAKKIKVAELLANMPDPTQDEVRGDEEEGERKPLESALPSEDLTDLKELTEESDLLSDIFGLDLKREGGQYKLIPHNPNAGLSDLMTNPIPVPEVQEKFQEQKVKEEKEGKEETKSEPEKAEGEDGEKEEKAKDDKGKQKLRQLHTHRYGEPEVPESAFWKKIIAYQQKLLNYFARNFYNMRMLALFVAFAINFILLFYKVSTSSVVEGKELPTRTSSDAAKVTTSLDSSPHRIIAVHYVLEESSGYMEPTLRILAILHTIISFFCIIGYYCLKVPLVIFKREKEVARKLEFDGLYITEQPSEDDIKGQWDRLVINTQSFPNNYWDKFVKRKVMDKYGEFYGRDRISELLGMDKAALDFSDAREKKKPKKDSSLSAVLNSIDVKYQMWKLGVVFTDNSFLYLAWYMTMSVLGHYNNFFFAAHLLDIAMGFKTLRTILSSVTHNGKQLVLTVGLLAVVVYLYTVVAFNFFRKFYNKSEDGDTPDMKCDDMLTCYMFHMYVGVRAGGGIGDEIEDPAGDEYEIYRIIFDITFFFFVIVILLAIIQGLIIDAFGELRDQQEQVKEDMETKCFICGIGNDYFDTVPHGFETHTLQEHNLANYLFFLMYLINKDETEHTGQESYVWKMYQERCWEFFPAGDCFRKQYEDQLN

## HEESRTARVIRSTVFLFBRFIRGLDALSK [DPcpvtN2, domain peptide containing amino acids 410–438 of human RyR2, the central helix of the N-terminal region]
RyR2 channel; 0.5–2 μM, cis side, diastolic conditions (100 nM cytosolic Ca2+, 1 mM luminal Ca2+, 0 mV), 2-min recording, n = 9 channels
  Effect on RyR2 open probability: Increase in open probability and the presence of long openings could be observed at all DPcpvtN2 concentrations
RyR2 channel; 0.5–2 μM, diastolic conditions, 0 mV
  Time to occurrence of long openings after addition: ≤ 1 min
RyR2 channel; 0.5–2 μM, diastolic conditions, 0 mV, control openings tO ~ 15 ms
  Open time (tO) of long openings: > 100 ms
RyR2 channel; fit by gating scheme GS3 (Equation 3), couples DPcpvtN2 binding to channel opening
  fp, allosteric factor: 0.61 ± 0.10
RyR2 channel; gating scheme GS1
  POmax, maximum open probability: 1
RyR2 channel; gating scheme GS2
  POmax, maximum open probability: 1
RyR2 channel; gating scheme GS3
  POmax, maximum open probability: 0.0275
RyR2 channel; inferred from concentration dependence of RyR open probability
  Reversibility of the interaction between channel and peptide: readily reversible
[1]; 1.5–3 μM, ethanol vs. phosphate buffer pH 7.0
  Ellipticity in ethanol compared with aqueous solution: an order of magnitude higher
[1]; CD spectra, 1.5–3 μM in phosphate buffer pH 7.0 or ethanol (solvent of the estimate not specified), CAPITO web server
  Content of α-helix: 99%

## O=S(=O)(O)c1cc(N=C=S)ccc1C=Cc1ccc(N=C=S)cc1S(=O)(=O)O [DIDS]
RyR2
  Effect on RyR2 activity: all-or-none

## HEESRTARVIRSTVFLFBRFIRGLDALSK (HEESRTARVIRSTVFLFXRFIRGLDALSK; not fully specified) [DPcpvtN2, domain peptide containing amino acids 410–438 of human RyR2, the central helix of the N-terminal region]
RyR2 channel; calculated from Equation (1), gating scheme GS1
  EC50: 66.4 µM
RyR2 channel; calculated from Equation (2), gating scheme GS2
  EC50: 17.6 µM
RyR2 channel; calculated from Equation (3), gating scheme GS3
  EC50: 0.41 µM
RyR2 channel; fit by gating scheme GS1 (Equation 1: one peptide bound opens channel), 0 mV, n = 9 channels
  Kd: 351 ± 99 µM
RyR2 channel; fit by gating scheme GS2 (Equation 2: four peptides bound open channel; fit rejected), 0 mV, n = 9 channels
  Kd: 3.35 ± 0.56 µM
